The values that follow come from the NIST ThermoML archive (doi:10.1021/acs.jced.8b00601).

± gives the expanded uncertainty stated by the source.

A short description of this data set: activity coefficient (dimensionless); of the first substance listed, at infinite dilution; xn = mol fraction of the nth substance listed. The settings on record: 101.33 kPa, Liquid, Chromatography, x1 = 0.

On to `ClCCCl` [1,2-dichloroethane] + O=S(=O)([N-]S(=O)(=O)C(F)(F)F)C(F)(F)F.O=S(=O)([N-]S(=O)(=O)C(F)(F)F)C(F)(F)F.O=S(=O)([N-]S(=O)(=O)C(F)(F)F)C(F)(F)F.c1ccc2cc(-n3cc[n+](Cc4cc(C[n+]5ccn(-c6ccc7ccccc7c6)c5)cc(C[n+]5ccn(-c6ccc7ccccc7c6)c5)c4)c3)ccc2c1, for which the activity coefficient is, setting by setting: (313 K) 0.758 ± 0.079; (323 K) 0.738 ± 0.077; (333 K) 0.677 ± 0.071; (343 K) 0.679 ± 0.071.

As for `Cc1ccccc1C` [1,2-dimethylbenzene] + O=S(=O)([N-]S(=O)(=O)C(F)(F)F)C(F)(F)F.O=S(=O)([N-]S(=O)(=O)C(F)(F)F)C(F)(F)F.O=S(=O)([N-]S(=O)(=O)C(F)(F)F)C(F)(F)F.c1ccc2cc(-n3cc[n+](Cc4cc(C[n+]5ccn(-c6ccc7ccccc7c6)c5)cc(C[n+]5ccn(-c6ccc7ccccc7c6)c5)c4)c3)ccc2c1, the activity coefficient (313 K) was found to be 3.35 ± 0.41, the activity coefficient (323 K) stood at 2.25 ± 0.3, the activity coefficient (333 K) was 1.54 ± 0.2 and the activity coefficient (343 K) was 1.04 ± 0.14.

For `Cc1cccc(C)c1` [1,3-dimethylbenzene] + O=S(=O)([N-]S(=O)(=O)C(F)(F)F)C(F)(F)F.O=S(=O)([N-]S(=O)(=O)C(F)(F)F)C(F)(F)F.O=S(=O)([N-]S(=O)(=O)C(F)(F)F)C(F)(F)F.c1ccc2cc(-n3cc[n+](Cc4cc(C[n+]5ccn(-c6ccc7ccccc7c6)c5)cc(C[n+]5ccn(-c6ccc7ccccc7c6)c5)c4)c3)ccc2c1, the activity coefficient worked out at 3.42 ± 0.42 (313 K), 2.31 ± 0.31 (323 K), 1.52 ± 0.19 (333 K) and 1.26 ± 0.14 (343 K).

On to `Cc1ccc(C)cc1` [1,4-dimethylbenzene] + O=S(=O)([N-]S(=O)(=O)C(F)(F)F)C(F)(F)F.O=S(=O)([N-]S(=O)(=O)C(F)(F)F)C(F)(F)F.O=S(=O)([N-]S(=O)(=O)C(F)(F)F)C(F)(F)F.c1ccc2cc(-n3cc[n+](Cc4cc(C[n+]5ccn(-c6ccc7ccccc7c6)c5)cc(C[n+]5ccn(-c6ccc7ccccc7c6)c5)c4)c3)ccc2c1, for which the activity coefficient is, setting by setting: (313 K) 4.47 ± 0.56; (323 K) 2.94 ± 0.39; (333 K) 2.09 ± 0.26; (343 K) 1.51 ± 0.2.

In the case of `C1COCCO1` [1,4-dioxane] + O=S(=O)([N-]S(=O)(=O)C(F)(F)F)C(F)(F)F.O=S(=O)([N-]S(=O)(=O)C(F)(F)F)C(F)(F)F.O=S(=O)([N-]S(=O)(=O)C(F)(F)F)C(F)(F)F.c1ccc2cc(-n3cc[n+](Cc4cc(C[n+]5ccn(-c6ccc7ccccc7c6)c5)cc(C[n+]5ccn(-c6ccc7ccccc7c6)c5)c4)c3)ccc2c1, the activity coefficient (313 K) worked out at 0.481 ± 0.06, the activity coefficient (323 K) is 0.34 ± 0.047, the activity coefficient (333 K) is 0.276 ± 0.038 and the activity coefficient (343 K) came out at 0.262 ± 0.037.

`CC#N` [acetonitrile] + O=S(=O)([N-]S(=O)(=O)C(F)(F)F)C(F)(F)F.O=S(=O)([N-]S(=O)(=O)C(F)(F)F)C(F)(F)F.O=S(=O)([N-]S(=O)(=O)C(F)(F)F)C(F)(F)F.c1ccc2cc(-n3cc[n+](Cc4cc(C[n+]5ccn(-c6ccc7ccccc7c6)c5)cc(C[n+]5ccn(-c6ccc7ccccc7c6)c5)c4)c3)ccc2c1: the activity coefficient runs as follows: (313 K) 0.263 ± 0.038; (323 K) 0.217 ± 0.035; (333 K) 0.189 ± 0.033; (343 K) 0.181 ± 0.032.

As to `O=Cc1ccccc1` [benzaldehyde] + O=S(=O)([N-]S(=O)(=O)C(F)(F)F)C(F)(F)F.O=S(=O)([N-]S(=O)(=O)C(F)(F)F)C(F)(F)F.O=S(=O)([N-]S(=O)(=O)C(F)(F)F)C(F)(F)F.c1ccc2cc(-n3cc[n+](Cc4cc(C[n+]5ccn(-c6ccc7ccccc7c6)c5)cc(C[n+]5ccn(-c6ccc7ccccc7c6)c5)c4)c3)ccc2c1, the activity coefficient by setting is: (313 K) 1 ± 0.1; (323 K) 0.999 ± 0.1; (333 K) 1 ± 0.1; (343 K) 1 ± 0.1.

Turning to `c1ccccc1` [benzene] + O=S(=O)([N-]S(=O)(=O)C(F)(F)F)C(F)(F)F.O=S(=O)([N-]S(=O)(=O)C(F)(F)F)C(F)(F)F.O=S(=O)([N-]S(=O)(=O)C(F)(F)F)C(F)(F)F.c1ccc2cc(-n3cc[n+](Cc4cc(C[n+]5ccn(-c6ccc7ccccc7c6)c5)cc(C[n+]5ccn(-c6ccc7ccccc7c6)c5)c4)c3)ccc2c1, the activity coefficient (313 K) came out at 2.58 ± 0.3, the activity coefficient (323 K) was 1.88 ± 0.23, the activity coefficient (333 K) was 1.35 ± 0.17 and the activity coefficient (343 K) amounted to 0.994 ± 0.12.

Consider `CCCC=O` [butanal] + O=S(=O)([N-]S(=O)(=O)C(F)(F)F)C(F)(F)F.O=S(=O)([N-]S(=O)(=O)C(F)(F)F)C(F)(F)F.O=S(=O)([N-]S(=O)(=O)C(F)(F)F)C(F)(F)F.c1ccc2cc(-n3cc[n+](Cc4cc(C[n+]5ccn(-c6ccc7ccccc7c6)c5)cc(C[n+]5ccn(-c6ccc7ccccc7c6)c5)c4)c3)ccc2c1, for which the activity coefficient reads like this: (313 K) 0.425 ± 0.049; (323 K) 0.415 ± 0.048; (333 K) 0.396 ± 0.047; (343 K) 0.324 ± 0.043.

For the compound `C1CCCCC1` [cyclohexane] + O=S(=O)([N-]S(=O)(=O)C(F)(F)F)C(F)(F)F.O=S(=O)([N-]S(=O)(=O)C(F)(F)F)C(F)(F)F.O=S(=O)([N-]S(=O)(=O)C(F)(F)F)C(F)(F)F.c1ccc2cc(-n3cc[n+](Cc4cc(C[n+]5ccn(-c6ccc7ccccc7c6)c5)cc(C[n+]5ccn(-c6ccc7ccccc7c6)c5)c4)c3)ccc2c1, the activity coefficient runs as follows: (313 K) 11.7 ± 1.3; (323 K) 9.16 ± 1; (333 K) 8.09 ± 0.9; (343 K) 6.25 ± 0.75.

Turning to `O=C1CCCCC1` [cyclohexanone] + O=S(=O)([N-]S(=O)(=O)C(F)(F)F)C(F)(F)F.O=S(=O)([N-]S(=O)(=O)C(F)(F)F)C(F)(F)F.O=S(=O)([N-]S(=O)(=O)C(F)(F)F)C(F)(F)F.c1ccc2cc(-n3cc[n+](Cc4cc(C[n+]5ccn(-c6ccc7ccccc7c6)c5)cc(C[n+]5ccn(-c6ccc7ccccc7c6)c5)c4)c3)ccc2c1, the activity coefficient runs as follows: (313 K) 1 ± 0.1; (323 K) 0.999 ± 0.1; (333 K) 1 ± 0.1; (343 K) 1 ± 0.1.

As to `O=C1CCCC1` [cyclopentanone] + O=S(=O)([N-]S(=O)(=O)C(F)(F)F)C(F)(F)F.O=S(=O)([N-]S(=O)(=O)C(F)(F)F)C(F)(F)F.O=S(=O)([N-]S(=O)(=O)C(F)(F)F)C(F)(F)F.c1ccc2cc(-n3cc[n+](Cc4cc(C[n+]5ccn(-c6ccc7ccccc7c6)c5)cc(C[n+]5ccn(-c6ccc7ccccc7c6)c5)c4)c3)ccc2c1, the activity coefficient runs as follows: (313 K) 0.303 ± 0.039; (323 K) 0.296 ± 0.04; (333 K) 0.22 ± 0.035; (343 K) 0.211 ± 0.034.

As for `CCO` [ethanol] + O=S(=O)([N-]S(=O)(=O)C(F)(F)F)C(F)(F)F.O=S(=O)([N-]S(=O)(=O)C(F)(F)F)C(F)(F)F.O=S(=O)([N-]S(=O)(=O)C(F)(F)F)C(F)(F)F.c1ccc2cc(-n3cc[n+](Cc4cc(C[n+]5ccn(-c6ccc7ccccc7c6)c5)cc(C[n+]5ccn(-c6ccc7ccccc7c6)c5)c4)c3)ccc2c1, the activity coefficient runs as follows: (313 K) 0.927 ± 0.1; (323 K) 0.724 ± 0.082; (333 K) 0.611 ± 0.066; (343 K) 0.606 ± 0.064.

`CCOC(C)=O` [ethyl acetate] + O=S(=O)([N-]S(=O)(=O)C(F)(F)F)C(F)(F)F.O=S(=O)([N-]S(=O)(=O)C(F)(F)F)C(F)(F)F.O=S(=O)([N-]S(=O)(=O)C(F)(F)F)C(F)(F)F.c1ccc2cc(-n3cc[n+](Cc4cc(C[n+]5ccn(-c6ccc7ccccc7c6)c5)cc(C[n+]5ccn(-c6ccc7ccccc7c6)c5)c4)c3)ccc2c1: the activity coefficient amounted to 1.02 ± 0.11 (313 K), 0.776 ± 0.093 (323 K), 0.544 ± 0.068 (333 K) and 0.443 ± 0.054 (343 K).

Turning to `CCCCCCC` [heptane] + O=S(=O)([N-]S(=O)(=O)C(F)(F)F)C(F)(F)F.O=S(=O)([N-]S(=O)(=O)C(F)(F)F)C(F)(F)F.O=S(=O)([N-]S(=O)(=O)C(F)(F)F)C(F)(F)F.c1ccc2cc(-n3cc[n+](Cc4cc(C[n+]5ccn(-c6ccc7ccccc7c6)c5)cc(C[n+]5ccn(-c6ccc7ccccc7c6)c5)c4)c3)ccc2c1, the activity coefficient came to 12.2 ± 1.3 (313 K), 10.1 ± 1.2 (323 K), 6.77 ± 0.82 (333 K) and 6.03 ± 0.65 (343 K).

For the compound `CCCCCCCC` [octane] + O=S(=O)([N-]S(=O)(=O)C(F)(F)F)C(F)(F)F.O=S(=O)([N-]S(=O)(=O)C(F)(F)F)C(F)(F)F.O=S(=O)([N-]S(=O)(=O)C(F)(F)F)C(F)(F)F.c1ccc2cc(-n3cc[n+](Cc4cc(C[n+]5ccn(-c6ccc7ccccc7c6)c5)cc(C[n+]5ccn(-c6ccc7ccccc7c6)c5)c4)c3)ccc2c1, the activity coefficient by setting is: (313 K) 28.4 ± 3.5; (323 K) 19.4 ± 2.5; (333 K) 14.1 ± 1.8; (343 K) 9.43 ± 1.4.

Turning to `CCCC(C)=O` [pentan-2-one] + O=S(=O)([N-]S(=O)(=O)C(F)(F)F)C(F)(F)F.O=S(=O)([N-]S(=O)(=O)C(F)(F)F)C(F)(F)F.O=S(=O)([N-]S(=O)(=O)C(F)(F)F)C(F)(F)F.c1ccc2cc(-n3cc[n+](Cc4cc(C[n+]5ccn(-c6ccc7ccccc7c6)c5)cc(C[n+]5ccn(-c6ccc7ccccc7c6)c5)c4)c3)ccc2c1, the activity coefficient is, setting by setting: (313 K) 0.54 ± 0.062; (323 K) 0.441 ± 0.053; (333 K) 0.365 ± 0.045; (343 K) 0.341 ± 0.042.

With `CCCO` [propan-1-ol] + O=S(=O)([N-]S(=O)(=O)C(F)(F)F)C(F)(F)F.O=S(=O)([N-]S(=O)(=O)C(F)(F)F)C(F)(F)F.O=S(=O)([N-]S(=O)(=O)C(F)(F)F)C(F)(F)F.c1ccc2cc(-n3cc[n+](Cc4cc(C[n+]5ccn(-c6ccc7ccccc7c6)c5)cc(C[n+]5ccn(-c6ccc7ccccc7c6)c5)c4)c3)ccc2c1, the activity coefficient worked out at 1.4 ± 0.16 (313 K), 1.1 ± 0.13 (323 K), 0.842 ± 0.094 (333 K) and 0.73 ± 0.079 (343 K).
